This note sets out measurements from patent US7049295B2, “Compounds and use thereof to modify transport across cell membranes” (Biotransys Limited, priority 1999, dated 2006).

The test system of test [1] is HUVECs. The experiment in a line: Transcellular transport of horse radish peroxidase (HRP) across a cell monolayer on filter. In kind it is cell-based, human. How it is done: Transport of horse radish peroxidase (HRP) across a cellular membrane was measured using the apparatus shown schematically in FIG. 4, with the addition of biovectors (BVS1 etc). The apparatus comprises upper and lower compartments (1, 2 respectively) separated by a filter 3 on which the cells 4 are grown. HRP and biovectors are added to the medium in the upper compartment 1, and HRP is assayed in the lower compartment 2.
Transcellular transport was determined as above for the HUVECs studies. […]

In test [2] the test system is receptor isolated from the HUVECS plasma membrane (albumin receptor protein). The experiment in a line: Interaction with purified isolated receptor reconstituted into FPE-labelled artificial membranes. In kind it is binding, human. The source says:
(§1) The following Examples illustrate the behaviour of various peptides and other molecules that promote transcellular transport of therapeutic molecules etc. These studies make use of techniques that show the interactions of molecules with receptors and cell membranes. […] The underlying theory and application of this technique is outlined in: • Wall, J., Ayoub, F. & O'Shea. P. (1995) J. Cell Sci. 108, 2673–2682 • Cladera, J. and O'Shea, P. (1998) Biophys. J. 74, 2434–2442 • Cladera, J., Martin, I., Ruysschaert, J. M. and O'Shea, P. (1999) J. Biol. Chem. 274, 29951–29959 the teaching of all of which is incorporated herein by reference.
At the arrows, 5 μM BVS1 was added. Two separate experiments are shown and offset in the time dimension for clarity.

For test [3], the system named is Caco2 cells. Kind of test: Transcellular transport of HRP across monolayers of Caco2 cells. In kind it is cell-based. The settings on record: Caco2 monolayer, following treatment with 5 μM BVS1 (absence of BVS1: ca 0.001). How it is done:
Caco2 cells were cultured (passage 17–30) with standard methods and used at ca 21 days. Cells were plated at a density of ca. […] on Transwell® filters (2–4 μm, mean pore size).
The viability of cells for transport was assessed on the basis of the transcellular electrical resistance and values […] were assessed as viable.
Transcellular transport was determined as above for the HUVECs studies. In the absence of BVS1 transcellular transport was determined to be ca 0.001 nM min^−1.
(Caco-2 cells form a polarised layer with tight junctions and transporters.)

Test [4] has as its system receptor located in human umbilical vein endothelial cells (HUVECS). The experiment in a line: Interaction of designer peptides with FPE-labelled human cells possessing membrane receptor (fluorescence). The test is classed as binding.
From the text: as §1
Human umbilical endothelial cells were labelled with FPE and challenged with the indicated amounts of BVS1 peptides. […] Fluorescence was recorded at 518 nm after excitation at 490 nm.
Two separate experiments are shown and offset in the time dimension for clarity. Peptides were added as indicated by the arrows. The BVS1 peptide was added in both experiments. In the second trace, however, addition of BVS1 was preceded by the addition of 300 nM IL-8.

[5] abbreviates: +5 μM biovector, over baseline 0.003 nM/min^−1.

In the case of AGIGALFLGFLGAAG [BVS16], the Facilitated transport in test [1] (setting [5]) was determined as 9 X Fold.

Take AVGIGALFLGFLGAAG [BVS1]: the Facilitated transport in test [1] (+5 μM PSNU then +5 μM BVS1) is 3/0; in test [1] (setting [5]), 15 X Fold. For the same substance, in test [2] (5 μM BVS1), the “binding to reconstituted isolated receptor (FPE fluorescence increase)” value was “clearly binds to a receptor”. The “binding to reconstituted isolated receptor after prior addition of human serum albumin” value in test [2] (5 μM BVS1 preceded by 5 μM human serum albumin) is given as “unable to bind”. Moreover, the transcellular transport in test [3] turned out to be 0.02 nM/min. The “binding to receptor (FPE fluorescence)” value in test [4] (HUVECS labelled with FPE) is “clearly binds to a receptor”. Also, the “binding to receptor after prior addition of IL-8” value in test [4] (addition of BVS1 preceded by 300 nM IL-8) is reported as “unable to bind”.

The substance GVFVLGFLGFLATAGS [BVS9] came in with a Facilitated transport in test [1] (setting [5]) of 7 X Fold.

GVFVLGLFGFLA [BVS5] registered a Facilitated transport in test [1] (setting [5]) of 22 X Fold.

Regarding interleukin-8 [IL-8], in test [4] (300 nM IL-8), the “binding of IL-8 to the receptor targeted by BVS1” value is listed as “appears to bind”.

The substance “polysulfonylnaphthylurea [PSNU, reference compound]” came in with a Facilitated transport in test [1] (setting [5]) of 3 X Fold. The “interaction with reconstituted albumin receptor protein (FPE)” value in test [2] (2 μM PSNU) is on record as “interactions take place”.
